Source: ChEMBL document CHEMBL1137360, “Structure-activity relationships of a novel series of urotensin II analogues: identification of a urotensin II antagonist” (J Med Chem, 2006)
Activity calls are given as the source filed them. The rule behind the calls is not given here. Positions of bridges follow the written chain, without caps; N, C: chain ends. Non-standard residues stand in square brackets, D forms with d. Residues, ends and D or L forms follow the SMILES beside them. Tyr(3-NO2) = N[C@@H](Cc1ccc(O)c([N+](=O)[O-])c1)C(=O)O; Phe(4-COOH) = N[C@@H](Cc1ccc(C(=O)O)cc1)C(=O)O; Phe(4-tBu) = CC(C)(C)c1ccc(C[C@H](N)C(=O)O)cc1; Tyr(3-I) = N[C@@H](Cc1ccc(O)c(I)c1)C(=O)O; Phe(4-NH2) = Nc1ccc(C[C@H](N)C(=O)O)cc1; Cha = N[C@@H](CC1CCCCC1)C(=O)O; NMeD = CN[C@@H](CC(=O)O)C(=O)O; pGlu = O=C1CC[C@@H](C(=O)O)N1; Pen = CC(C)(S)[C@H](N)C(=O)O; Aib = CC(C)(N)C(=O)O

Assays:
Rattus norvegicus [1] = species: Rattus norvegicus; experiment: Agonist activity in rat aortic ring contraction assay relative to 1 uM phenylephrine; format: functional
Rattus norvegicus [2] = species: Rattus norvegicus; experiment: Agonist activity in rat aortic ring contraction assay; format: functional; settings: Aorta
Urotensin-2 receptor [3] = molecular target: T1, Urotensin-2 receptor (Homo sapiens, UniProt Q9UKP6); experiment: Displacement of [125I]human urotensin-2 from human GPR14 transfected in CHO cells; format: cell-based
T1 sequence (Q9UKP6 whole entry): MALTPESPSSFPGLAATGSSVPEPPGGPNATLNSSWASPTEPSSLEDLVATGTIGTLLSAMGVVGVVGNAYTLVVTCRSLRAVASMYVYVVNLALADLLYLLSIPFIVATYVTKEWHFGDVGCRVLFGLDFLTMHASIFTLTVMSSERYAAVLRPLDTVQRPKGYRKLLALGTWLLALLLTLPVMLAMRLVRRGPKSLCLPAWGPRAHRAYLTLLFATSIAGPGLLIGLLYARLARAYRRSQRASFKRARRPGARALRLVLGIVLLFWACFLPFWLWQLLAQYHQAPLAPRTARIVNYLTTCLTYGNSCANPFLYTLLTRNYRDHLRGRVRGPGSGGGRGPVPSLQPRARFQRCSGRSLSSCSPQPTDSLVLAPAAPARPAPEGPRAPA

[4] = molecular target: T2, Urotensin-2 receptor (Rattus norvegicus) (UniProt P49684); experiment: Antagonist activity against 0.1 uM human urotensin-2-induced contraction of rat aortic ring; format: functional, tissue-based; parameters: scale not given: the % may be the effect or the level left; settings: Aorta
T2 sequence (whole entry): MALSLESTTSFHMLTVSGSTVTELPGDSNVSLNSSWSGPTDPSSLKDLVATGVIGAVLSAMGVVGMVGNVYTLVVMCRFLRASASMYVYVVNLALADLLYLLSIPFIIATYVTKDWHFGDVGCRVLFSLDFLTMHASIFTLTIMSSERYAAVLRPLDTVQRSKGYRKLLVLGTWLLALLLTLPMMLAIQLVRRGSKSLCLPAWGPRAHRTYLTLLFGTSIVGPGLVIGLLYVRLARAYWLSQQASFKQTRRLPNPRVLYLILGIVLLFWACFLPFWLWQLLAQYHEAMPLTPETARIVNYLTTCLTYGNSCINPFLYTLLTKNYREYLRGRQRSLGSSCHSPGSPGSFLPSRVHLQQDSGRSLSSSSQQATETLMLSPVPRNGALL

Urotensin-2 receptor [5] = molecular target: T3, Urotensin-2 receptor (Rattus norvegicus, UniProt P49684); experiment: Antagonist potency against human urotensin-2-induced contraction of rat aortic ring; format: functional, tissue-based, Aorta; settings: read-out: pA2 (converted)
T3 sequence (P49684 whole entry): T2 sequence (whole entry)

[6] = molecular target: T2, Urotensin-2 receptor (Rattus norvegicus); experiment: Antagonist activity against 1 uM human urotensin-2-induced contraction of rat aortic ring; format: functional, tissue-based; settings: Aorta
Rattus norvegicus [7] = species: Rattus norvegicus; experiment: Agonist activity in rat aortic ring contraction assay relative to 0.1 uM phenylephrine; format: functional, Aorta

For `CC(C)[C@H](NC(=O)[C@@H]1CSSC[C@H](NC(=O)[C@@H](N)CC(=O)O)C(=O)N[C@@H](CC2CCCCC2)C(=O)N[C@@H](Cc2c[nH]c3ccccc23)C(=O)N[C@@H](CCCCN)C(=O)N[C@@H](Cc2ccc(O)cc2)C(=O)N1)C(=O)O`, the Activity (Rattus norvegicus [1]; Aorta) was “inactive”, the EC50 (Rattus norvegicus [2]) was > 10000 nM and the Ki (Urotensin-2 receptor [3]) was 407 nM. The Activity [4] was 95.7% and the Kb (Urotensin-2 receptor [5]) was 813 nM.
For `CC(C)[C@H](NC(=O)[C@@H]1CSSC[C@H](NC(=O)[C@@H](N)CC(=O)O)C(=O)N[C@@H](Cc2ccccc2)C(=O)N[C@@H](Cc2c[nH]c3ccccc23)C(=O)N[C@@H](CCCCN)C(=O)N[C@@H](Cc2ccc(C(=O)O)cc2)C(=O)N1)C(=O)O` (H-DCFWK[Phe(4-COOH)]CV-OH; disulfide 2-7), the Activity [6] was “inactive”, the Activity (Rattus norvegicus [1]) was 79.3% and the EC50 (Rattus norvegicus [2]) was 1700 nM. For the same molecule, the Ki (Urotensin-2 receptor [3]) was 74.1 nM.
With `CC(C)[C@H](NC(=O)[C@@H]1CSSC[C@H](NC(=O)[C@@H](N)CC(=O)O)C(=O)N[C@@H](Cc2ccccc2)C(=O)N[C@@H](Cc2c[nH]c3ccccc23)C(=O)N[C@@H](CCCCN)C(=O)N[C@@H](Cc2ccc(N)cc2)C(=O)N1)C(=O)O` (H-DCFWK[Phe(4-NH2)]CV-OH; disulfide 2-7) the Activity [6] was “inactive”, the Activity (Rattus norvegicus [1]) was 97.7% and the EC50 (Rattus norvegicus [2]) was 427 nM. The Ki (Urotensin-2 receptor [3]) was 10 nM.
With `CC(C)[C@H](NC(=O)[C@@H]1CSSC[C@H](NC(=O)[C@@H](N)CC(=O)O)C(=O)N[C@@H](Cc2ccccc2)C(=O)N[C@@H](Cc2c[nH]c3ccccc23)C(=O)N[C@@H](CCCCN)C(=O)N[C@@H](Cc2ccc(C(C)(C)C)cc2)C(=O)N1)C(=O)O` (H-DCFWK[Phe(4-tBu)]CV-OH; disulfide 2-7) the Activity [6] was “inactive”, the Activity (Rattus norvegicus [1]) was 88.5% and the EC50 (Rattus norvegicus [2]) was 23.4 nM. The Ki (Urotensin-2 receptor [3]) was 9.12 nM.
`CC(C)[C@H](NC(=O)[C@@H]1CSSC[C@H](NC(=O)[C@@H](N)CC(=O)O)C(=O)N[C@@H](Cc2ccccc2)C(=O)N[C@@H](Cc2c[nH]c3ccccc23)C(=O)N[C@@H](CCCCN)C(=O)N[C@@H](Cc2ccc(O)c([N+](=O)[O-])c2)C(=O)N1)C(=O)O` (H-DCFWK[Tyr(3-NO2)]CV-OH; disulfide 2-7) was tested, and the Activity [6] was “inactive”, the Activity (Rattus norvegicus [1]) was 95% and the EC50 (Rattus norvegicus [2]) was 9.77 nM. The Ki (Urotensin-2 receptor [3]) was 2.4 nM.
For `CC(C)C[C@@H]1NC(=O)[C@@H](NC(=O)[C@@H](N)CC(=O)O)CSSC[C@@H](C(=O)N[C@H](C(=O)O)C(C)C)NC(=O)[C@H](Cc2ccc(O)cc2)NC(=O)[C@H](CCCCN)NC(=O)[C@H](Cc2c[nH]c3ccccc23)NC1=O` (H-DCLWKYCV-OH; disulfide 2-7), the Activity (Rattus norvegicus [7]) was 38.7%, the Activity [6] was “inactive” and the EC50 (Rattus norvegicus [2]) was > 10000 nM. The Ki (Urotensin-2 receptor [3]) was 132 nM.
In the case of `CC(C)[C@H](NC(=O)[C@@H]1CSSC[C@H](NC(=O)[C@@H](N)CC(=O)O)C(=O)N[C@@H](CC2CCCCC2)C(=O)N[C@@H](Cc2c[nH]c3ccccc23)C(=O)N[C@@H](CCCCN)C(=O)N[C@@H](Cc2ccc(O)c(I)c2)C(=O)N1)C(=O)O` (H-DC[Cha]WK[Tyr(3-I)]CV-OH; disulfide 2-7), the Activity [6] is reported as “inactive”, the Activity (Rattus norvegicus [1]) is reported as 82.1% and the EC50 (Rattus norvegicus [2]) is reported as 355 nM. It also gave a Ki (Urotensin-2 receptor [3]) of 19.5 nM.
`CC(C)[C@H](NC(=O)[C@@H]1CSSC(C)(C)[C@H](NC(=O)[C@@H](N)CC(=O)O)C(=O)N[C@@H](CC2CCCCC2)C(=O)N[C@@H](Cc2c[nH]c3ccccc23)C(=O)N[C@@H](CCCCN)C(=O)N[C@@H](Cc2ccc(O)cc2)C(=O)N1)C(=O)O` (H-D[Pen][Cha]WKYCV-OH; disulfide 2-7) was tested, and the Activity [6] was “inactive”, the Activity (Rattus norvegicus [1]) was 14.8% and the EC50 (Rattus norvegicus [2]) was 1910 nM. The Ki (Urotensin-2 receptor [3]) was 155 nM.
For `CC(C)[C@H](NC(=O)[C@@H]1CSSC[C@H](NC(=O)[C@@H](N)CCC(=O)O)C(=O)N[C@@H](Cc2ccccc2)C(=O)N[C@@H](Cc2c[nH]c3ccccc23)C(=O)N[C@@H](CCCCN)C(=O)N[C@@H](Cc2ccc(O)cc2)C(=O)N1)C(=O)O` (H-ECFWKYCV-OH; disulfide 2-7), the Activity [6] was “inactive”, the Activity (Rattus norvegicus [1]) was 82.1% and the EC50 (Rattus norvegicus [2]) was 4.79 nM. It also gave a Ki (Urotensin-2 receptor [3]) of 2.95 nM.
In the case of `CC(C)[C@H](NC(=O)[C@@H]1CSSC[C@H](NC(=O)C(C)(C)N)C(=O)N[C@@H](Cc2ccccc2)C(=O)N[C@@H](Cc2c[nH]c3ccccc23)C(=O)N[C@@H](CCCCN)C(=O)N[C@@H](Cc2ccc(O)cc2)C(=O)N1)C(=O)O` (H-[Aib]CFWKYCV-OH; disulfide 2-7), the Activity [6] is reported as “inactive”, the Activity (Rattus norvegicus [1]) is reported as 83.9% and the EC50 (Rattus norvegicus [2]) is reported as 5.62 nM. It also gave a Ki (Urotensin-2 receptor [3]) of 2.24 nM.
In the case of `CN[C@@H](CC(=O)O)C(=O)N[C@H]1CSSC[C@@H](C(=O)N[C@H](C(=O)O)C(C)C)NC(=O)[C@H](Cc2ccc(O)cc2)NC(=O)[C@H](CCCCN)NC(=O)[C@H](Cc2c[nH]c3ccccc23)NC(=O)[C@H](Cc2ccccc2)NC1=O` (H-[NMeD]CFWKYCV-OH; disulfide 2-7), the Activity [6] is reported as “inactive”, the Activity (Rattus norvegicus [1]) is reported as 93.1% and the EC50 (Rattus norvegicus [2]) is reported as 6.03 nM. For the same molecule, the Ki (Urotensin-2 receptor [3]) was 1.62 nM.
In the case of `CC(C)[C@H](NC(=O)[C@@H]1CSSC[C@H](NC(=O)[C@@H]2CCC(=O)N2)C(=O)N[C@@H](Cc2ccccc2)C(=O)N[C@@H](Cc2c[nH]c3ccccc23)C(=O)N[C@@H](CCCCN)C(=O)N[C@@H](Cc2ccc(O)cc2)C(=O)N1)C(=O)O` ([pGlu]CFWKYCV-OH; disulfide 2-7), the Activity [6] is reported as “inactive”, the Activity (Rattus norvegicus [1]) is reported as 98.6% and the EC50 (Rattus norvegicus [2]) is reported as 5.89 nM. The Ki (Urotensin-2 receptor [3]) was 0.912 nM.
